The IC50 is the concentration that gives 50% inhibition.

The target of the assay is PI3Kδ (p110δ/p85α) (Homo sapiens (Human), UniProt O00329). The assay is described as follows: PI3Kδ scintillation proximity assay (Example A3). Conditions: 20 μM ATP, 20 μM PIP2, 4 nM PI3Kδ; read-out: PI3Kδ SPA IC50. Type of assay: biochemical. In outline: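 Human PI3Kδ (p110δ/p85α, 4 nM) with 20 μM PIP2 and 20 μM ATP plus [γ-33P]ATP in 20 mM MOPS pH 6.7, 10 mM MgCl2, 5 mM DTT, 0.03% CHAPS, 0.5% DMSO, room temperature. Reaction stopped with EDTA/excess ATP; product captured on WGA SPA beads and counted. IC50 from percent control activity vs log inhibitor.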
Sequence of PI3Kδ (p110δ/p85α) (O00329 whole entry): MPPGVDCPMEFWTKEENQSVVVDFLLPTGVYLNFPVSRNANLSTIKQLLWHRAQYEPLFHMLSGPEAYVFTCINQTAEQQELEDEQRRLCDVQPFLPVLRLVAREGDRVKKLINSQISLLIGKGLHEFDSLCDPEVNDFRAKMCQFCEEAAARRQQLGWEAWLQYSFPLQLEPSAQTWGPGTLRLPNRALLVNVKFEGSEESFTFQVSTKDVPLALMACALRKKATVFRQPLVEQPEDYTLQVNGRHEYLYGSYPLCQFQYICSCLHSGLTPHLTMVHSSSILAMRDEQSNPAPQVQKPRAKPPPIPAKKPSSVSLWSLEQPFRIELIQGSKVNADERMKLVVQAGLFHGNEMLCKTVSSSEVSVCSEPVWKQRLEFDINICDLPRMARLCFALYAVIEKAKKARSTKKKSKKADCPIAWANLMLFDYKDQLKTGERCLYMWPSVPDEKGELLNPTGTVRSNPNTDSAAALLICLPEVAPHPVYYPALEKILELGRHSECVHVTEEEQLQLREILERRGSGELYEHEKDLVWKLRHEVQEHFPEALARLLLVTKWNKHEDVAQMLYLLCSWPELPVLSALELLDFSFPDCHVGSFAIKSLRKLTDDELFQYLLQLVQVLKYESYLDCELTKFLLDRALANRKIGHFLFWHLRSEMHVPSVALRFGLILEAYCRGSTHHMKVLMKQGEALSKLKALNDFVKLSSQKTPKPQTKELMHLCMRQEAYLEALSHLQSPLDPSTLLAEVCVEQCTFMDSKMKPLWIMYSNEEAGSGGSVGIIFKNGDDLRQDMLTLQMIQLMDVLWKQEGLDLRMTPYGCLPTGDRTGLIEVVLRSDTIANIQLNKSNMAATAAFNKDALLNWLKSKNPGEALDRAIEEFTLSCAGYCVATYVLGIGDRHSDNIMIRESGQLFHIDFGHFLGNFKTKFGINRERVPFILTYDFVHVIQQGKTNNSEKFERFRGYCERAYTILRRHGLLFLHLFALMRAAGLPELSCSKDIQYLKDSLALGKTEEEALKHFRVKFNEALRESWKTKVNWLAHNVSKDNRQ
Sequence of PI3Kδ (p110δ/p85α) (P27986 whole entry partner): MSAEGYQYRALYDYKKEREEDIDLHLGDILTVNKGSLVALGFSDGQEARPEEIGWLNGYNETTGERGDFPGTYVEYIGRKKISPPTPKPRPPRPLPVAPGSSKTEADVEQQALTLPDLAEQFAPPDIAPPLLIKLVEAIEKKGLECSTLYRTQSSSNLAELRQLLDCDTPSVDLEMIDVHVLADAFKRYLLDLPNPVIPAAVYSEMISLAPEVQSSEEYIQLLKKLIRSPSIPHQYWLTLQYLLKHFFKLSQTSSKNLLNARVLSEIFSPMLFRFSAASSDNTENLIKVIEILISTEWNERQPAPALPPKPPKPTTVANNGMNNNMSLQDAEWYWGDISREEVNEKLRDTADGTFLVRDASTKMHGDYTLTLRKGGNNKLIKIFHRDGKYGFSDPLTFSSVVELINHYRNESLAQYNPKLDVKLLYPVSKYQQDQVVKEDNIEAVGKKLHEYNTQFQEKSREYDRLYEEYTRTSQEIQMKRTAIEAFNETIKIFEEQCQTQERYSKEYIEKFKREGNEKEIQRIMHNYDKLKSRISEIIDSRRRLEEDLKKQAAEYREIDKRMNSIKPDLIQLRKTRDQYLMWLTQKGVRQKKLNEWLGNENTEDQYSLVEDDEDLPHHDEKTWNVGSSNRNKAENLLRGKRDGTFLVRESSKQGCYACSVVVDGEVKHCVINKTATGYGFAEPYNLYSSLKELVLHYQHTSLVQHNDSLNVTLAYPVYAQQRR

In the case of `COc1c(C(C)n2nc(C)c3c(N)ncnc32)cc(Cl)c(C)c1-c1cnc(N)nc1` (single isomer, unassigned) [Example 169, 1-(1-(3-(2-aminopyrimidin-5-yl)-5-chloro-2-methoxy-4-methylphenyl)ethyl)-3-methyl-1H-pyrazolo[3,4-d]pyrimidin-4-amine], the IC50 is at most 10 nM.

With `COc1c(C(C)n2nc(C)c3c(N)ncnc32)cc(Cl)c(C)c1-c1cncc(C#N)c1` (single isomer, unassigned) [Example 170, 5-(3-(1-(4-amino-3-methyl-1H-pyrazolo[3,4-d]pyrimidin-1-yl)ethyl)-5-chloro-2-methoxy-6-methylphenyl)nicotinonitrile], the IC50 is at most 10 nM.

`COc1c(C(C)n2nc(C)c3c(N)ncnc32)cc(Cl)c(C)c1-c1ccc(N)nc1` (single isomer, unassigned) [Example 171, 1-(1-(3-(6-aminopyridin-3-yl)-5-chloro-2-methoxy-4-methylphenyl)ethyl)-3-methyl-1H-pyrazolo[3,4-d]pyrimidin-4-amine]: the IC50 was at most 10 nM.

As for `COc1c(C(C)n2nc(C)c3c(N)ncnc32)cc(Cl)c(C)c1-c1cncc(S(C)(=O)=O)c1` (single isomer, unassigned) [Example 172, 1-(1-(5-chloro-2-methoxy-4-methyl-3-(5-(methylsulfonyl)pyridin-3-yl)phenyl)ethyl)-3-methyl-1H-pyrazolo[3,4-d]pyrimidin-4-amine], the IC50 is at most 10 nM.

Regarding `CNC(=O)c1ccc(-c2c(C)c(Cl)cc(C(C)n3nc(C)c4c(N)ncnc43)c2OC)cn1` (single isomer, unassigned) [Example 173, 5-(3-(1-(4-amino-3-methyl-1H-pyrazolo[3,4-d]pyrimidin-1-yl)ethyl)-5-chloro-2-methoxy-6-methylphenyl)-N-methylpicolinamide], the IC50 is at most 10 nM.

Take `COc1c(C(C)n2nc(C)c3c(N)ncnc32)cc(Cl)c(C)c1-c1cncc(C(=O)N(C)CCO)c1` (single isomer, unassigned) [Example 175, 5-{3-[1-(4-amino-3-methyl-1H-pyrazolo[3,4-d]pyrimidin-1-yl)ethyl]-5-chloro-2-methoxy-6-methylphenyl}-N-(2-hydroxyethyl)-N-methylnicotinamide]: the IC50 is at most 10 nM.

For the compound `COc1c(C(C)n2nc(C)c3c(N)ncnc32)cc(Cl)c(C)c1-c1cncc(C(=O)N2CCC(O)CC2)c1` (single isomer, unassigned) [Example 176, 1-[(5-{3-[1-(4-amino-3-methyl-1H-pyrazolo[3,4-d]pyrimidin-1-yl)ethyl]-5-chloro-2-methoxy-6-methylphenyl}pyridin-3-yl)carbonyl]piperidin-4-ol], the IC50 was at most 10 nM.

With `COc1c(C(C)n2nc(C)c3c(N)ncnc32)cc(Cl)c(C)c1-c1cncc(C(=O)N(C)CCN)c1` (single isomer, unassigned) [Example 178, 5-(3-(1-(4-amino-3-methyl-1H-pyrazolo[3,4-d]pyrimidin-1-yl)ethyl)-5-chloro-2-methoxy-6-methylphenyl)-N-(2-aminoethyl)-N-methylnicotinamide], the IC50 was at most 10 nM.

Consider `COc1c(C(C)n2nc(C)c3c(N)ncnc32)cc(Cl)c(C)c1CCC(=O)N(C)C` (single isomer, unassigned) [Example 180, 3-(3-(1-(4-Amino-3-methyl-1H-pyrazolo[3,4-d]pyrimidin-1-yl)ethyl)-5-chloro-2-methoxy-6-methylphenyl)-N,N-dimethylpropanamide], for which the IC50 was at most 10 nM.

On to `COc1c(C(C)n2nc(C)c3c(N)ncnc32)cc(Cl)c(C)c1-c1ccc(N(C)C)nc1` (single isomer, unassigned) [Example 185, 1-(1-(5-chloro-3-(6-(dimethylamino)pyridin-3-yl)-2-methoxy-4-methylphenyl)ethyl)-3-methyl-1H-pyrazolo[3,4-d]pyrimidin-4-amine], for which the IC50 is at most 10 nM.

For the compound `COc1c(C(C)n2nc(C)c3c(N)ncnc32)cc(Cl)c(C)c1-c1ccnc(N(C)C)c1` (single isomer, unassigned) [Example 186, 1-(1-(5-chloro-3-(2-(dimethylamino)pyridin-4-yl)-2-methoxy-4-methylphenyl)ethyl)-3-methyl-1H-pyrazolo[3,4-d]pyrimidin-4-amine], the IC50 is at most 10 nM.

As to `COc1c(C(C)n2nc(C)c3c(N)ncnc32)cc(Cl)c(C)c1-c1ccnc(N2CC(O)C2)c1` (single isomer, unassigned) [Example 187, 1-(4-(3-(1-(4-amino-3-methyl-1H-pyrazolo[3,4-d]pyrimidin-1-yl)ethyl)-5-chloro-2-methoxy-6-methylphenyl)pyridin-2-yl)azetidin-3-ol], the IC50 is at most 10 nM.

`COc1c(C(C)n2nc(C)c3c(N)ncnc32)cc(Cl)c(C)c1C1CC1` (single isomer, unassigned) [Example 192, 1-[1-(5-Chloro-3-cyclopropyl-2-methoxy-4-methylphenyl)ethyl]-3-methyl-1H-pyrazolo[3,4-d]pyrimidin-4-amine]: the IC50 was in the range of 10 to 50 nM.

Turning to `COc1c(C(C)n2nc(C)c3c(N)ncnc32)cc(Cl)c(C)c1CC1CC1` (single isomer, unassigned) [Example 193, 1-{1-[5-Chloro-3-(cyclopropylmethyl)-2-methoxy-4-methylphenyl]ethyl}-3-methyl-1H-pyrazolo[3,4-d]pyrimidin-4-amine], the 50% inhibitory concentration (IC50) was in the range of 50 to 200 nM.

For the compound `CCOc1c(C(C)n2nc(C)c3c(N)ncnc32)cc(Cl)c(C)c1-c1ccc(C(=O)NC)nc1` (single isomer, unassigned) [Example 199, 5-(3-(1-(4-amino-3-methyl-1H-pyrazolo[3,4-d]pyrimidin-1-yl)ethyl)-5-chloro-2-ethoxy-6-methylphenyl)-N-methylpicolinamide], the IC50 was at most 10 nM.

`CCOc1c(C(C)n2nc(C)c3c(N)ncnc32)cc(Cl)c(C)c1-c1ccnc(C(=O)N(C)CCO)c1` (single isomer, unassigned) [Example 202, 4-(3-(1-(4-amino-3-methyl-1H-pyrazolo[3,4-d]pyrimidin-1-yl)ethyl)-5-chloro-2-ethoxy-6-methylphenyl)-N-(2-hydroxyethyl)-N-methylpicolinamide]: the IC50 was at most 10 nM.

Consider `CCOc1c(C(C)n2nc(C)c3c(N)ncnc32)cc(Cl)c(C)c1-c1cnn(CC(=O)NC)c1` (single isomer, unassigned) [Example 204, 2-(4-(3-(1-(4-amino-3-methyl-1H-pyrazolo[3,4-d]pyrimidin-1-yl)ethyl)-5-chloro-2-ethoxy-6-methylphenyl)-1H-pyrazol-1-yl)-N-methylacetamide], for which the IC50 was at most 10 nM.

For the compound `CCOc1c(C(C)n2nc(C)c3c(N)ncnc32)cc(Cl)c(C)c1-c1cnn(CC(=O)N(C)C)c1` (single isomer, unassigned) [Example 205, 2-(4-(3-(1-(4-amino-3-methyl-1H-pyrazolo[3,4-d]pyrimidin-1-yl)ethyl)-5-chloro-2-ethoxy-6-methylphenyl)-1H-pyrazol-1-yl)-N,N-dimethylacetamide], the IC50 was at most 10 nM.

In the case of `COc1c(C(C)n2nc(C)c3c(N)ncnc32)cc(Cl)c(C)c1-c1cnn(CC(=O)N(C)C)c1` (single isomer, unassigned) [Example 206, 2-(4-(3-(1-(4-amino-3-methyl-1H-pyrazolo[3,4-d]pyrimidin-1-yl)ethyl)-5-chloro-2-methoxy-6-methylphenyl)-1H-pyrazol-1-yl)-N,N-dimethylacetamide], the IC50 was at most 10 nM.

Take `COc1c(C(C)n2nc(C)c3c(N)ncnc32)cc(C#N)c(C)c1-c1cnn(C)c1` (single isomer, unassigned) [Example 209, 5-[1-(4-Amino-3-methyl-1H-pyrazolo[3,4-d]pyrimidin-1-yl)ethyl]-4-methoxy-2-methyl-3-(1-methyl-1H-pyrazol-4-yl)benzonitrile]: the IC50 was 10 to 50 nM.

Take `CCOc1c(C(C)n2nc(C)c3c(N)ncnc32)cc(C#N)c(C)c1-c1cnn(C)c1` (single isomer, unassigned) [Example 210, 5-[1-(4-Amino-3-methyl-1H-pyrazolo[3,4-d]pyrimidin-1-yl)ethyl]-4-ethoxy-2-methyl-3-(1-methyl-1H-pyrazol-4-yl)benzonitrile]: the IC50 is at most 10 nM.

With `CCOc1c(C(C)n2nc(C)c3c(N)ncnc32)cc(Cl)c(C#N)c1C1CN(CC(C)C)C1` (single isomer, unassigned) [Example 216, 4-[1-(4-Amino-3-methyl-1H-pyrazolo[3,4-d]pyrimidin-1-yl)ethyl]-6-chloro-3-ethoxy-2-(1-isobutylazetidin-3-yl)benzonitrile], the IC50 was at most 10 nM.

Regarding `CCOc1c(C(C)n2nc(C)c3c(N)ncnc32)cc(Cl)c(C#N)c1C1CN(C2CCC2)C1` (single isomer, unassigned) [Example 218, 4-[1-(4-Amino-3-methyl-1H-pyrazolo[3,4-d]pyrimidin-1-yl)ethyl]-6-chloro-2-(1-cyclobutylazetidin-3-yl)-3-ethoxybenzonitrile], the IC50 is at most 10 nM.

As to `CCOc1c(C(C)n2nc(C)c3c(N)ncnc32)cc(Cl)c(C#N)c1C1CN(CCO)C1` (single isomer, unassigned) [Example 219, 4-[1-(4-Amino-3-methyl-1H-pyrazolo[3,4-d]pyrimidin-1-yl)ethyl]-6-chloro-3-ethoxy-2-[1-(2-hydroxyethyl)azetidin-3-yl]benzonitrile], the IC50 is at most 10 nM.

Consider `CCOc1c(C(C)n2nc(C)c3c(N)ncnc32)cc(Cl)c(C#N)c1C1CN(C(COC)COC)C1` (single isomer, unassigned) [Example 226, 4-[1-(4-Amino-3-methyl-1H-pyrazolo[3,4-d]pyrimidin-1-yl)ethyl]-6-chloro-3-ethoxy-2-{1-[2-methoxy-1-(methoxymethyl)ethyl]azetidin-3-yl}benzonitrile], for which the IC50 was at most 10 nM.
